Like-named read-outs stand apart in the source and are kept apart here.
Columns and labels:
Type in all cases: cell-based, Hepatitis C virus
[1] = system: HCV genotype 1a H77 strain subgenomic luciferase replicon; test: HCV replicon assay, genotype 1a
Procedure: (§1) The HCV luciferase replicon assay measures the ability of a test compound to inhibit HCV replication in cell culture after 3 days of treatment in a human hepatoma cell line (Huh-7) bearing an HCV replicon containing a luciferase-neomycin phosphotransferase fusion gene. The inhibition of HCV replication was measured by quantification of luciferase protein expression. Briefly, Huh-7 cells containing either the HCV genotype 1a H77 strain or genotype 1b Con1 strain subgenomic luciferase replicon (H1a-luc or Zluc, respectively) were grown in DMEM containing glucose, L-glutamine and sodium pyruvate, 10% fetal bovine serum (FBS), 100 IU/mL penicillin, 100 μg/mL streptomycin, 2 mM GlutaMAX, non-essential amino acids and 0.25 (H1a-luc) or 0.5 (Zluc) mg/mL G418. GlutaMAX was obtained from Invitrogen, Corp.; all other media reagents were obtained from Mediatech, Inc. For dose-response testing, the cells were seeded in 96-well plates at 1×10^4 (H1a-luc) or 7.5×10^3 (Zluc) cells/well in a volume of 50 μL, and incubated at 37° C./5% CO2. Three hours after plating, 50 μL of ten 5-fold serial dilutions of compound were added, and cell cultures were incubated at 37° C./5% CO2 for 72 hours. In all cases, Huh-7 cells lacking the HCV replicon served as negative control. To assess luciferase expression, the media/compound was removed from the plates and ONE-glo Luciferase assay reagent (Promega) was added to each well. The assay plates were shaken for 3 minutes at room temperature and luciferase activity for each well was measured with a 1 sec read time on the Victor^3V multilabel counter using a 700 nm cut-off filter (Perkin Elmer). EC50 values were calculated from dose response curves from the resulting best-fit equations determined by Microsoft Excel and XLfit 4.1 software.

HCV 2b = test: HCV replicon assay, genotype 2b
[2] = system: HCV genotype 3a NS5A within the 1b-replicon; test: HCV replicon assay, genotype 3a (NS5A intergenotypic stable cell line)
Description: The nucleotide sequences of the NS5A region of genotype 2a (GenBank Accession # AB047639), genotype 3a (GenBank Accession # D17763), and genotype 4a (GenBank Accession # DQ418788) were synthesized by an outside vendor. The NS5A region of each of these genotypes included the first 11 amino acids of the protease recognition sequence of genotype 1b, as well as the last 10 amino acids of genotype 1b. The NS5A gene cassettes were excised with site specific restriction endonucleases and ligated into a ZS11-luciferase genotype 1b backbone (backbone contains the genotype 1b NS3 protease, NS4a, NS4b, and NS5b coding regions) with similarly cut restriction enzyme sites. Thus, the newly constructed plasmid contains a genotype 2a-, 3a- or 4a-specific NS5A gene within the 1b-replicon.
These new intergenotypic plasmids were used to establish stable cell lines. RNA was generated from the NS5A intergenotypic plasmids and used in conjunction with a lipofectin reagent to transfect a cured Huh7 cell line. Transfected cells were selected for with G418. After selection has occurred the stable cell lines were propagated, tested for luciferase activity, and RT-PCR with genotype specific primers (either 1a, 2a, 3a, or 4a). Stable cell lines containing the intergenotypic replicon were then fully sequenced and analyzed for proper expression of NS3, NS5A and NS5B proteins.
Drug titration analysis was performed using the luciferase replicon assay described herein.
as §1

[3] = system: HCV 1aY93H mutant replicon; test: HCV replicon assay, genotype 1a Y93H mutant
Procedure: General procedure: The luciferase replicon transient transfection assay measures the ability of a test compound to inhibit the replication of a transiently-transfected HCV luciferase-bearing wild-type or mutant replicon in cured human hepatoma cells (Huh7.5). The inhibition of HCV replication was measured by quantification of luciferase protein expression. This assay has been validated using a panel of genotype 1a and 1b replicons bearing mutations known to be associated with resistance to BMS-790052. Briefly, subconfluent Huh7.5 cells were electroporated with 10 μg of wild-type or mutant luciferase-bearing HCV replicon RNA. The cells were then seeded in 96-well opaque white plates at 3×10^4 cells/well in 150 μL/well and incubated for 4 hrs at 37° C./5% CO2. Ten 1:5 serial dilutions of each test compound were made in media (DMEM containing glucose, L-glutamine and sodium pyruvate, 10% fetal bovine serum, 100 IU/mL penicillin, 100 μg/mL streptomycin, 2 mM GlutaMAX, and 1×MEM non-essential amino acids (Mediatech, Inc. and Invitrogen Corp.)) at concentrations that were 4× higher than the final concentrations to be tested and 50 μL/well was added to the transfected cells. Untreated, mock-transfected cells served as a negative control of luciferase expression. The plates were incubated at 37° C./5% CO2 for 4 days whereupon the media was removed and 50 μL of ONE-glo luciferase substrate (Promega) was added to each well. The plates were agitated on a rotating platform at room temperature for 3 min and read in a Victor^3V microplate reader (Perkin-Elmer) using a 700 nm cut-off filter with a 1 sec read time. EC50 values were calculated from dose response curves from the resulting best-fit equations determined by Microsoft Excel and XLfit 4.1 software.

[4] = system: HCV genotype 1b Con1 strain subgenomic luciferase replicon; test: HCV replicon assay, genotype 1b
Procedure: as §1

[5] = Hepatitis C virus, read-out: 1a IC50 (nM), HCV genotype 1a
[6] = Hepatitis C virus, read-out: 2b IC50 (nM), HCV genotype 2b
[7] = Hepatitis C virus, read-out: 3a IC50 (nM), HCV genotype 3a
[8] = Hepatitis C virus, read-out: 1aY93H IC50 (nM), HCV genotype 1a, Y93H mutant
[9] = read-out: 1a IC50, HCV genotype 1a
[10] = read-out: 2b IC50, HCV genotype 2b
[11] = read-out: 3a IC50, HCV genotype 3a
[12] = read-out: 1aY93H IC50, HCV genotype 1a, Y93H mutant

COC(=O)N[C@H](C(=O)N1CCC[C@H]1c1ncc(-c2ccc3c(ccc4oc5ccc(-c6cnc([C@@H]7CCCN7C(=O)[C@@H](NC(=O)OC)C(C)C)[nH]6)cc5c(=O)c43)c2)[nH]1)C(C)C [Compound 25, methyl [(1S)-1-({(2S)-2-[5-(10-{2-[(2S)-1-{(2S)-2-[(methoxycarbonyl)amino]-3-methylbutanoyl}pyrrolidin-2-yl]-1H-imidazol-5-yl}-12-oxo-12H-benzo[a]xanthen-3-yl)-1H-imidazol-2-yl]pyrrolidin-1-yl}carbonyl)-2-methylpropyl]carbamate]
IC50 [1, 5]: 0.167 nM
IC50 (HCV 2b; [6]): ≥ 100 nM
IC50 [2, 7]: ≥ 1 nM
IC50 [3, 8]: ≥ 100 nM
IC50 ([4]; Hepatitis C virus): 0.107 nM

COC(=O)N[C@H](C(=O)N1CCC[C@H]1c1ncc(-c2ccc3c(c2)Oc2ccc4cc(-c5cnc([C@@H]6CCCN6C(=O)[C@@H](NC(=O)OC)C(C)C)[nH]5)ccc4c2C3C)[nH]1)C(C)C (single isomer, unassigned) [Compound 2]
IC50 [1, 9]: 0.0046 nM
IC50 (HCV 2b; [10]): 37.1 nM
IC50 [2, 7]: 1.38 nM
IC50 [3, 8]: 10.6 nM
IC50 [4]: 0.0036 nM

COC(=O)N[C@H](C(=O)N1CCC[C@H]1c1ncc(-c2ccc3c(c2)Oc2ccc4cc(-c5cnc([C@@H]6CCCN6C(=O)[C@@H](NC(=O)OC)C(C)C)[nH]5)ccc4c2C3C)[nH]1)C(C)C (single isomer, unassigned) [Compound 3]
IC50 [1, 9]: 0.0022 nM
IC50 (HCV 2b; [10]): 1.95 nM
IC50 [2, 11]: 0.721 nM
IC50 [3, 12]: 7.15 nM
IC50 [4]: 0.0016 nM

CCC1(CC)c2ccc(-c3cnc([C@@H]4CCCN4C(=O)[C@H](NC(=O)OC)C(C)C)[nH]3)cc2Oc2ccc3cc(-c4cnc([C@@H]5CCCN5C(=O)[C@@H](NC(=O)OC)C(C)C)[nH]4)ccc3c21 [Compound 8, methyl [(1R)-1-({(2S)-2-[5-(12,12-diethyl-3-{2-[(2S)-1-{(2S)-2-[(methoxycarbonyl)amino]-3-methylbutanoyl}pyrrolidin-2-yl]-1H-imidazol-5-yl}-12H-benzo[a]xanthen-9-yl)-1H-imidazol-2-yl]pyrrolidin-1-yl}carbonyl)-2-methylpropyl]carbamate]
IC50 [1, 5]: 0.002 nM
IC50 (HCV 2b; [6]): 3.33 nM
IC50 [2, 7]: 0.581 nM
IC50 [3, 8]: 4.1 nM

COC(=O)N[C@H](C(=O)N1CCC[C@H]1c1ncc(-c2ccc3c(c2)Oc2ccc4cc(-c5cnc([C@@H]6CCCN6C(=O)[C@@H](NC(=O)OC)C6CCOCC6)[nH]5)ccc4c2C3(C)C)[nH]1)C1CCOCC1 [Compound 13, dimethyl [(12,12-dimethyl-12H-benzo[a]xanthene-3,9-diyl)bis{1H-imidazole-5,2-diyl(2S)pyrrolidine-2,1-diyl[(1S)-2-oxo-1-(tetrahydro-2H-pyran-4-yl)ethane-2,1-diyl]}]biscarbamate]
IC50 [1, 5]: 0.0023 nM
IC50 (HCV 2b; [6]): 0.254 nM
IC50 [2, 7]: 0.084 nM
IC50 [3, 8]: 0.682 nM
IC50 ([4]; Hepatitis C virus): 0.004 nM

COC(=O)N[C@H](C(=O)N1CCC[C@H]1c1ncc(-c2ccc3c(c2)Oc2ccc4cc(-c5cnc([C@@H]6CCCN6C(=O)[C@@H](NC(=O)OC)C6CCOCC6)[nH]5)ccc4c2C3C)[nH]1)C1CCOCC1 (single isomer, unassigned) [Compound 11]
IC50 [1, 5]: 0.0037 nM
IC50 (HCV 2b; [10]): 0.016 nM
IC50 [2, 7]: 0.038 nM
IC50 [3, 8]: 0.391 nM
IC50 ([4]; Hepatitis C virus): 0.0044 nM

CCN(CC)[C@@H](C(=O)N1C[C@H](F)C[C@H]1c1ncc(-c2ccc3c(ccc4oc5cc(-c6cnc([C@@H]7C[C@@H](F)CN7C(=O)[C@@H](c7ccccc7)N(CC)CC)[nH]6)ccc5c(=O)c43)c2)[nH]1)c1ccccc1 [Compound 31, 3,9-bis(2-{(2S,4R)-1-[(2R)-2-(diethylamino)-2-phenylacetyl]-4-fluoropyrrolidin-2-yl}-1H-imidazol-5-yl)-12H-benzo[a]xanthen-12-one]
IC50 [1, 5]: 0.31 nM
IC50 (HCV 2b; [6]): 797 nM
IC50 [2, 7]: 0.0262 nM
IC50 [3, 8]: 506 nM

COC(=O)N[C@H](C(=O)N1CCC[C@H]1c1ncc(-c2ccc3c(c2)Oc2ccc4cc(-c5cnc([C@@H]6CCCN6C(=O)[C@@H](NC(=O)OC)C6CCOCC6)[nH]5)ccc4c2C3C)[nH]1)C1CCOCC1 (single isomer, unassigned) [Compound 12]
IC50 [1, 9]: 0.0045 nM
IC50 (HCV 2b; [10]): 0.495 nM
IC50 [2, 11]: 0.055 nM
IC50 [3, 12]: 0.548 nM
IC50 [4]: 0.0056 nM

COC(=O)N[C@H](C(=O)N1C[C@H](F)C[C@H]1c1ncc(-c2ccc3c(ccc4oc5cc(-c6cnc([C@@H]7C[C@@H](F)CN7C(=O)[C@@H](NC(=O)OC)C(C)C)[nH]6)ccc5c(=O)c43)c2)[nH]1)C(C)C [Compound 28, methyl [(1S)-1-({(2S,4R)-4-fluoro-2-[5-(9-{2-[(2S,4R)-4-fluoro-1-{(2S)-2-[(methoxycarbonyl)amino]-3-methylbutanoyl}pyrrolidin-2-yl]-1H-imidazol-5-yl}-12-oxo-12H-benzo[a]xanthen-3-yl)-1H-imidazol-2-yl]pyrrolidin-1-yl}carbonyl)-2-methylpropyl]carbamate]
IC50 [1, 5]: 0.0292 nM
IC50 (HCV 2b; [6]): 89.8 nM
IC50 [2, 7]: ≥ 1 nM
IC50 [3, 8]: 1.18 nM
IC50 ([4]; Hepatitis C virus): 0.00445 nM

COC(=O)N[C@H](C(=O)N1C[C@H](F)C[C@H]1c1ncc(-c2ccc3c(ccc4oc5cc(-c6cnc([C@@H]7C[C@@H](F)CN7C(=O)[C@@H](NC(=O)OC)C7CCOCC7)[nH]6)ccc5c(=O)c43)c2)[nH]1)C1CCOCC1 [Compound 32, dimethyl [(12-oxo-12H-benzo[a]xanthene-3,9-diyl)bis{1H-imidazole-5,2-diyl[(2S,4R)-4-fluoropyrrolidine-2,1-diyl][(1S)-2-oxo-1-(tetrahydro-2H-pyran-4-yl)ethane-2,1-diyl]}]biscarbamate]
IC50 [1, 5]: 0.0841 nM
IC50 (HCV 2b; [6]): 3.47 nM
IC50 [2, 7]: 5.84 nM
IC50 [3, 8]: 0.18 nM

CCC1c2ccc(-c3cnc([C@@H]4CCCN4C(=O)[C@@H](NC(=O)OC)C(C)C)[nH]3)cc2Oc2ccc3cc(-c4cnc([C@@H]5CCCN5C(=O)[C@@H](NC(=O)OC)C(C)C)[nH]4)ccc3c21 (single isomer, unassigned) [Compound 5]
IC50 [1, 5]: 0.005 nM
IC50 (HCV 2b; [10]): 0.784 nM
IC50 [2, 7]: 1.08 nM
IC50 [3, 8]: 11.7 nM

COC(=O)N[C@H](C(=O)N1CCC[C@H]1c1ncc(-c2ccc3c(ccc4oc5cc(-c6cnc([C@@H]7CCCN7C(=O)[C@@H](NC(=O)OC)C7CCOCC7)[nH]6)ccc5c(=O)c43)c2)[nH]1)C1CCOCC1 [Compound 30, dimethyl [(12-oxo-12H-benzo[a]xanthene-3,9-diyl)bis{1H-imidazole-5,2-diyl(2S)pyrrolidine-2,1-diyl[(1S)-2-oxo-1-(tetrahydro-2H-pyran-4-yl)ethane-2,1-diyl]}]biscarbamate]
IC50 [1, 5]: 0.0416 nM
IC50 (HCV 2b; [6]): 0.481 nM
IC50 [2, 7]: 0.722 nM
IC50 [3, 8]: 2.03 nM

— US10787441B2, “Hepatitis C virus inhibitors” (priority 2016, dated 2020)
